# System: polymerized actin in lysate of NIH 3T3 EF cells
# Test: Measurement of polymerized actin in the steady state (STAFI) and Kobs in cellular lysate by static fluorescence polarization
# Assay type: biochemical, murine
# Conditions: NIH 3T3 EF lysate
# From the text: The result of the test is a plateau fluorescence anisotropy value (<<STAFI>>) corresponding to the quantity of polymerized actin in the steady state and an apparent constant (Kobs) for actin polymerization resulting from the progressive incorporation of marked actin monomers over time until attainment of the steady state, that is the plateau of the curve.
# By use of the GraphPad Prism® version 3 Software (GraphPad Software, Inc., San Diego, Calif.), for biostatistics, curve fitting, and scientific graphing, the experimental data are used to generate a curve adjusted to a 1st order equation such that: Y=ΔmA max(1−e^−k·t) where
# The technique of fluorescence polarization, also called static fluorescence anisotropy enables the obtaining of a value dependent on the size of the fluorescent molecule and the number of fluorescent molecular complexes. […] The level of this plateau, called <<STAFI>> reflects the quantity of F at the steady state, that is, the […], and the speed of reaching the plateau depends on the rapidity with which these filaments are formed. […]
# At the time of the test, the solution of marked actin monomers is diluted to 1/3 in G solution. The apparatus used is a Beacon® 2000 Fluorescence Polarization System (Invitrogen Corporation, Carlsbad, Calif.) fluorescence polarization spectrometer. […]
smiles,measurement,setting,value
C/C1=C\[C@H](C)C[C@H](C)OC(=O)C[C@H](c2ccc(O)cc2)NC(=O)[C@@H](Cc2c(Br)[nH]c3ccccc23)N(C)C(=O)[C@H](C)NC(=O)[C@@H](C)C1 [Jasplakinolide],"delta mA max (STAFI, fluorescence anisotropy value at the plateau)","10 μM jasplakinolide added to polymerization medium, initial value 35 mA, NIH 3T3 65 mA",66 mA
same,Kobs (apparent constant of actin polymerization),"jasplakinolide added, NIH 3T3 EF alone 0.04, NIH 3T3 0.086",0.15

# Reference: patent publication US7491505B2, “Method for analyzing tumor aggressivity comprising measurement of polymerized actin” (Bioalliance Pharma, priority 2002, dated 2009)
